Results: patent publication US10501516B2, “Peptide compound” (TAKEDA PHARMACEUTICAL COMPANY LIMITED, priority 2016, dated 2019)
Square brackets hold non-standard residues; d marks the D form. Side chains are listed from the residue outwards. Peptide text beside a SMILES is read from it. * marks the point of attachment. C18 diacid = O=C(O)CCCCCCCCCCCCCCCCC(=O)*; Phe(2-F) = N[C@@H](Cc1ccccc1F)C(=O)O; NMeY = CN[C@@H](Cc1ccc(O)cc1)C(=O)O; αMeF = C[C@](N)(Cc1ccccc1)C(=O)O; Iva = CC[C@](C)(N)C(=O)O; Aib = CC(C)(N)C(=O)O

Columns and labels:
human NPY2R = molecular target: T1, human NPY2R (Homo sapiens, UniProt P49146); test: Reporter assay of human NPY2R gene (agonist activity, decrease in intracellular cAMP as index); format: cell-based; conditions: Cre-luc reporter, hNPY2R CHO-K1 cells, forskolin 1.2 μM, 4 hours; read-out: Agonist activity (EC50) hY2R
T1 construct: expressed in transfected cells; host or cells: CHO-K1 Cre-luc reporter cells (pAKKO1114/hNPY2R#481 No. 88 cells)
T1 sequence (P49146 1-381): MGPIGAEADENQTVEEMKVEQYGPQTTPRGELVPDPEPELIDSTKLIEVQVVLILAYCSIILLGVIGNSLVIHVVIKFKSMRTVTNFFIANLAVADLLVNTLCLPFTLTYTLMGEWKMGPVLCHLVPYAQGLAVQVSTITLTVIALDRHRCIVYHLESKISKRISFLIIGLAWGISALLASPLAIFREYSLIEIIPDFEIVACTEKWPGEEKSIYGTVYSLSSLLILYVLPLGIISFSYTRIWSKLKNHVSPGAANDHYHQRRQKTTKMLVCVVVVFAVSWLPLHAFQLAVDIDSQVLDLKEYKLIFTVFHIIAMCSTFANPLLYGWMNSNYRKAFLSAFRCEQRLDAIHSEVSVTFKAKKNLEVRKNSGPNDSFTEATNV
Description: Evaluation of Agonist Activity Against Human NPY2R, Human GIPR, and Human GLP-1R Using Change in Intracellular cAMP Concentration as Index
The human NPY2R gene having a sequence identical to the sequence of GenBank Accession No. AC104407 was cloned into pAKKO1114 vector to prepare hNPY2R/pAKKO1114. Next, pGL4.29 (Promega) was introduced to CHO-K1 cells, which were then screened with hygromycin to construct Cre-luc reporter cells. These cells were cotransfected with hNPY2R/pAKKO1114 and pcDNA3.1 (Life Technologies Corp.), and the cells were screened with geneticin. Next, a cell line induced to express luciferase, i.e., pAKKO1114/hNPY2R#481 No. 88 cells, were selected from the obtained transformants by the addition of human PYY (3-36).
The pAKKO1114/hNPY2R#481 No. 88 cells were inoculated at a cell density of 25 μL/well (5,000 cells/well) to a 384-well white plate (Corning, 3570), and cultured overnight in Ham F12 medium containing 10% fetal bovine serum, 100 U/mL penicillin and 100 μg/mL streptomycin in a CO2 incubator of 37° C. On the next day, the medium was removed, and an assay medium (Ham F12 medium containing 0.1% BSA, 100 U/mL penicillin and 100 μg/mL streptomycin) containing forskolin (final concentration: 1.2 μM) was added at a concentration of 25 μL/well to the cells. Next, an assay medium containing a test compound was added at a concentration of 5 μL/well to the cells, and the resultant cells were incubated for 4 hours in a CO2 incubator of 37° C. to give the final concentration of 1 μM. SteadyGlo (Promega) was added thereto at a concentration of 30 μL/well, and the mixture was left standing for 20 minutes with light shielded. The luciferase activity was measured using a plate reader Envision (PerkinElmer). The luciferase activity from the addition of DMSO was defined as 100%, and the luciferase activity from the addition of 1 μM human PYY(3-36) instead of the test compound was defined as 0%. The NPY2R agonist activity was calculated with a decrease in intracellular cAMP concentration as an index.

male C57BL/6J mouse = test: Evaluation of feeding suppressive action in mice; format: in vivo; conditions: 3-days cumulative food consumption vs solvent control
Outline: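 Male C57BL/6J mice, 8-9 weeks, ad libitum fed, given compound (30 or 100 nmol/2 mL in 10% DMSO saline) s.c. at 2 mL/kg once daily for 3 days. Cumulative 3-day food consumption measured by weighing; suppression rate (%) calculated relative to vehicle controls.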

EC50 (human NPY2R) | Compound | Rate of feeding suppression (%) (male C57BL/6J mouse; 100 nmol/kg s.c. once a day for 3 days) | Rate of feeding suppression (%) (male C57BL/6J mouse; 30 nmol/kg s.c. once a day for 3 days)
2.1 nM | CC[C@H](C)[C@H](NC(=O)C(C)(C)NC(=O)[C@H](CCCCNC(=O)CNC(=O)CNC(=O)CNC(=O)CNC(=O)CCCCCCCCCCCCCCCCC(=O)O)NC(=O)[C@H](CC(=O)O)NC(=O)[C@H](CO)NC(=O)[C@@H](NC(=O)[C@](C)(Cc1ccccc1)NC(=O)[C@@H](NC(=O)CNC(=O)[C@H](CCC(=O)O)NC(=O)C(C)(C)NC(=O)[C@@H](N)Cc1ccc(O)cc1)[C@@H](C)O)[C@@H](C)O)C(=O)NC(C)(C)C(=O)N[C@@H](CC(C)C)C(=O)N[C@@H](CC(=O)O)C(=O)N[C@@H](CCCCN)C(=O)N[C@@H](CCC(N)=O)C(=O)N[C@@H](C)C(=O)N[C@@H](CCC(N)=O)C(=O)N[C@@](C)(CC)C(=O)N[C@@H](CCC(=O)O)C(=O)N[C@@H](Cc1ccccc1)C(=O)N[C@H](C(=O)N[C@@H](CCCNC(=N)N)C(=O)N[C@@H](Cc1c[nH]cn1)C(=O)N[C@@H](CC(C)C)C(=O)N[C@@H](CC(C)C)C(=O)N[C@@H](CC(N)=O)C(=O)N[C@@H](CCCCN)C(=O)NC(C)(C)C(=O)N[C@H](C(=O)N[C@@H](CCCNC(=N)N)C(=O)N[C@@H](CCC(N)=O)C(=O)N[C@@H](CCCNC(=N)N)C(=O)N[C@@H](Cc1ccccc1F)C(N)=O)[C@@H](C)O)C(C)C [Example 2] (H-Y[Aib]EGT[αMeF]TSDK([Gly-Gly-Gly-Gly-C18 diacid])[Aib]I[Aib]LDKQAQ[Iva]EFVRHLLNK[Aib]TRQR[Phe(2-F)]-NH2) | −77.3% | –
2.1 nM | CC[C@H](C)[C@H](NC(=O)C(C)(C)NC(=O)[C@H](CCCCNC(=O)CNC(=O)CNC(=O)CNC(=O)CNC(=O)CCCCCCCCCCCCCCCCC(=O)O)NC(=O)[C@H](CC(=O)O)NC(=O)[C@H](CO)NC(=O)[C@@H](NC(=O)[C@](C)(Cc1ccccc1)NC(=O)[C@@H](NC(=O)CNC(=O)[C@H](CCC(=O)O)NC(=O)C(C)(C)NC(=O)[C@@H](N)Cc1ccc(O)cc1)[C@@H](C)O)[C@@H](C)O)C(=O)NC(C)(C)C(=O)N[C@@H](CC(C)C)C(=O)N[C@@H](CC(=O)O)C(=O)N[C@@H](CCCCN)C(=O)N[C@@H](CCC(N)=O)C(=O)N[C@@H](CCCNC(=N)N)C(=O)N[C@@H](CCC(N)=O)C(=O)N[C@@](C)(CC)C(=O)N[C@@H](CCC(=O)O)C(=O)N[C@@H](Cc1ccccc1)C(=O)N[C@H](C(=O)N[C@@H](CCCNC(=N)N)C(=O)N[C@@H](Cc1c[nH]cn1)C(=O)N[C@@H](CC(C)C)C(=O)N[C@@H](CC(C)C)C(=O)N[C@@H](CC(N)=O)C(=O)N[C@@H](CCCCN)C(=O)NC(C)(C)C(=O)N[C@H](C(=O)N[C@@H](CCCNC(=N)N)C(=O)N[C@@H](CCC(N)=O)C(=O)N[C@@H](CCCNC(=N)N)C(=O)N[C@@H](Cc1ccc(O)cc1)C(N)=O)[C@@H](C)O)C(C)C [Example 8] (H-Y[Aib]EGT[αMeF]TSDK([Gly-Gly-Gly-Gly-C18 diacid])[Aib]I[Aib]LDKQRQ[Iva]EFVRHLLNK[Aib]TRQRY-NH2) | – | –
2.6 nM | CC[C@H](C)[C@H](NC(=O)[C@H](CO)NC(=O)[C@H](CCCCNC(=O)CNC(=O)CNC(=O)CNC(=O)CNC(=O)CCCCCCCCCCCCCCCCC(=O)O)NC(=O)[C@H](CC(=O)O)NC(=O)[C@H](CO)NC(=O)[C@@H](NC(=O)[C@](C)(Cc1ccccc1)NC(=O)[C@@H](NC(=O)CNC(=O)[C@H](CCC(=O)O)NC(=O)C(C)(C)NC(=O)[C@@H](N)Cc1ccc(O)cc1)[C@@H](C)O)[C@@H](C)O)C(=O)NC(C)(C)C(=O)N[C@@H](CC(C)C)C(=O)N[C@@H](CC(=O)O)C(=O)N[C@@H](CCCCN)C(=O)N[C@@H](CCC(N)=O)C(=O)N[C@@H](CCCNC(=N)N)C(=O)N[C@@H](CCC(N)=O)C(=O)N[C@@](C)(CC)C(=O)N[C@@H](CCC(=O)O)C(=O)N[C@@H](Cc1ccccc1)C(=O)N[C@H](C(=O)N[C@@H](CCCNC(=N)N)C(=O)N[C@@H](Cc1c[nH]cn1)C(=O)N[C@@H](CC(C)C)C(=O)N[C@@H](CC(C)C)C(=O)N[C@@H](CC(N)=O)C(=O)N[C@@H](CCCCN)C(=O)NC(C)(C)C(=O)N[C@H](C(=O)N[C@@H](CCCNC(=N)N)C(=O)N[C@@H](CCC(N)=O)C(=O)N[C@@H](CCCNC(=N)N)C(=O)N[C@@H](Cc1ccc(O)cc1)C(N)=O)[C@@H](C)O)C(C)C [Example 16] (H-Y[Aib]EGT[αMeF]TSDK([Gly-Gly-Gly-Gly-C18 diacid])SI[Aib]LDKQRQ[Iva]EFVRHLLNK[Aib]TRQRY-NH2) | – | –
1.5 nM | CC[C@H](C)[C@H](NC(=O)C(C)(C)NC(=O)[C@H](CCCCNC(=O)CNC(=O)CNC(=O)CNC(=O)CNC(=O)CCCCCCCCCCCCCCCCC(=O)O)NC(=O)[C@H](CC(=O)O)NC(=O)[C@H](CO)NC(=O)[C@@H](NC(=O)[C@](C)(Cc1ccccc1)NC(=O)[C@@H](NC(=O)CNC(=O)[C@H](CCC(=O)O)NC(=O)C(C)(C)NC(=O)[C@H](Cc1ccc(O)cc1)NC)[C@@H](C)O)[C@@H](C)O)C(=O)NC(C)(C)C(=O)N[C@@H](CC(C)C)C(=O)N[C@@H](CCC(=O)O)C(=O)N[C@@H](CCCCN)C(=O)N[C@@H](CCC(N)=O)C(=O)N[C@@H](CCCNC(=N)N)C(=O)N[C@@H](CCC(N)=O)C(=O)N[C@@](C)(CC)C(=O)N[C@@H](CCC(=O)O)C(=O)N[C@@H](Cc1ccccc1)C(=O)N[C@H](C(=O)N[C@@H](CCCNC(=N)N)C(=O)N[C@@H](Cc1c[nH]cn1)C(=O)N[C@@H](CC(C)C)C(=O)N[C@@H](CC(C)C)C(=O)N[C@@H](CC(N)=O)C(=O)N[C@@H](CCCCN)C(=O)NC(C)(C)C(=O)N[C@H](C(=O)N[C@@H](CCCNC(=N)N)C(=O)N[C@@H](CCC(N)=O)C(=O)N[C@@H](CCCNC(=N)N)C(=O)N[C@@H](Cc1ccc(O)cc1)C(N)=O)[C@@H](C)O)C(C)C [Example 34] (H-[NMeY][Aib]EGT[αMeF]TSDK([Gly-Gly-Gly-Gly-C18 diacid])[Aib]I[Aib]LEKQRQ[Iva]EFVRHLLNK[Aib]TRQRY-NH2) | – | −39.9%
